Results from US20080279868A1, “Antibody-Drug Conjugates and Methods of Use” (priority 2005, published 2008).

Assay: Rate of cyclization of 6-membered hydrazine linker in buffer
Type: physicochemical
Settings: for rate of cyclization of the hydrazine linker: buffer at pH 7.4
Method: A duocarmycin analog conjugated to a dimethyl 6-membered hydrazine linker was incubated in buffer at pH 7.4 for 24 hours and the generation of cyclized product resulting from cyclization of the hydrazine linker, thereby releasing free duocarmycin analog, was assessed over time.
A duocarmycin analog conjugated to a gem-dimethyl 6-membered hydrazine linker was incubated in buffer at pH 7.4 and the generation of cyclized product resulting from cyclization of the hydrazine linker, thereby releasing free duocarmycin analog, was assessed over time.

Compound	rate of cyclization of the hydrazine linker	generation of cyclized product resulting from cyclization of the hydrazine linker (buffer at pH 7.4, over 24 hours)
COC(=O)c1c(C)[nH]c2c(OC(=O)N(C)CC(=O)N(C)N)cc3c(c12)[C@H](CCl)CN3C(=O)c1cc2cc(OC)ccc2o1	relatively slow rate of cyclization	Minimal amounts of cyclized product
COC(=O)c1c(C)[nH]c2c(OC(=O)N(C)C(C)(C)C(=O)N(C)N)cc3c(c12)[C@H](CCl)CN3C(=O)c1cc2cc(OC)ccc2o1	proceeding to completion within a few minutes	
